Consider eight compounds from PubChem BioAssay (NCI).

SMILES strings stand for the structures.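 A five-concentration, 48-hour dose response in 96-well plates underlies each endpoint, interpolated linearly between surrounding concentrations. Here, GI50 denotes the concentration required for 50% inhibition of growth. At the TGI there is no net growth.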

Among the test systems are 786-0 renal; CCRF-CEM leukemia; HCT-116 colon; HOP-62 NSCLC; MALME-3M melanoma; NCI-H460 lung; OVCAR-5 ovarian; SN12C renal; SW-620 colon; T-47D breast.
Common to all, as to assay: inhibition of tumour cell growth, NCI panel, 48 h

As for `N#Cc1c(N)nc(N2CCOCC2)c(C#N)c1-c1c(Cl)cccc1Cl`, the GI50 was 12.9 µM in the experiment with 786-0 renal; 4.91 µM in the experiment with CCRF-CEM leukemia; 3.07 µM in the experiment on HCT-116 colon; 3.52 µM in the experiment on HOP-62 NSCLC; 3.72 µM with MALME-3M melanoma; 6.39 µM with NCI-H460 lung. Further, the GI50 with OVCAR-5 ovarian is 6.27 µM; in the experiment on SN12C renal it was 6.17 µM; in the experiment on SW-620 colon it was 5.16 µM; with T-47D breast, 3.43 µM. Also, the TGI with 786-0 renal was 36.7 µM; in the experiment on CCRF-CEM leukemia, 46.6 µM; in the experiment on HCT-116 colon it was 12.2 µM; with HOP-62 NSCLC, 17.8 µM; in the experiment with MALME-3M melanoma, 13.5 µM; in the experiment with NCI-H460 lung, 44.6 µM. Moreover, the TGI with OVCAR-5 ovarian was 35.3 µM; with SN12C renal, 33.2 µM; with SW-620 colon, above 100 µM; with T-47D breast, 10.1 µM.

On to `Cc1c(-c2ccccn2)ccc2ccccc12`, for which the TGI in the experiment on 786-0 renal, with CCRF-CEM leukemia, with HCT-116 colon, in the experiment on HOP-62 NSCLC, in the experiment with MALME-3M melanoma and with NCI-H460 lung was above 100 µM each time. Besides, the TGI in the experiment on OVCAR-5 ovarian, in the experiment with SN12C renal, in the experiment on SW-620 colon and with T-47D breast was above 100 µM in each case.

For `CC(C)(C)[Si](C)(C)OC1[C@@H](COC(=O)NC(=O)CCl)O[C@@H](n2cnc3c(N)ncnc32)[C@H]1O[Si](C)(C)C(C)(C)C` (some centres undefined), the GI50 in the experiment on 786-0 renal is 1.05 µM; with CCRF-CEM leukemia it was 0.232 µM; with HCT-116 colon, 1.53 µM; in the experiment with HOP-62 NSCLC, 4.04 µM; with MALME-3M melanoma, 0.984 µM; in the experiment on NCI-H460 lung it was 7.22 µM. Further, the GI50 in the experiment with OVCAR-5 ovarian was 3.11 µM; in the experiment on SN12C renal, 1.17 µM; in the experiment on SW-620 colon, 1.73 µM; in the experiment on T-47D breast, 4.94 µM. Besides, the TGI turned out to be 2.33 µM in the experiment on 786-0 renal; 0.931 µM in the experiment on CCRF-CEM leukemia; 5.15 µM in the experiment on HCT-116 colon; 10.3 µM in the experiment on HOP-62 NSCLC; 2.01 µM with MALME-3M melanoma; 14.9 µM with NCI-H460 lung. In addition, the TGI with OVCAR-5 ovarian was 9.55 µM; in the experiment with SN12C renal, 3.23 µM; in the experiment with SW-620 colon, 6.54 µM; in the experiment on T-47D breast, 11.1 µM.

For the compound `C[C@]12CCC(=O)C[C@@H]1CC[C@@H]1[C@@H]2CC[C@]2(C)[C@@H](OC(=O)N(CCCl)N=O)CC[C@@H]12`, the GI50 was 0.118 µM with 786-0 renal; 0.207 µM in the experiment with CCRF-CEM leukemia; 2.89 µM in the experiment with HCT-116 colon; 1.75 µM in the experiment on HOP-62 NSCLC; 4.3 µM in the experiment on MALME-3M melanoma; 0.06 µM in the experiment with NCI-H460 lung. The GI50 was 6.31 µM with OVCAR-5 ovarian, 0.734 µM in the experiment on SN12C renal, 1.11 µM in the experiment on SW-620 colon and 2.91 µM with T-47D breast. The TGI with 786-0 renal is 3.66 µM; in the experiment on HCT-116 colon, above 35.1 µM; in the experiment with HOP-62 NSCLC, 14.1 µM; in the experiment on MALME-3M melanoma, 24.1 µM; in the experiment on NCI-H460 lung it was 2.99 µM; in the experiment with OVCAR-5 ovarian it was 22.4 µM. The TGI in the experiment on SN12C renal was 17.9 µM; with SW-620 colon it was 19 µM; in the experiment with T-47D breast, 30 µM.

As to `CC(=O)c1c(C)c2cnc(Nc3ccc(N4CCNCC4)cn3)nc2n(C2CCCC2)c1=O`, the GI50 is 5.04 µM in the experiment with 786-0 renal; 0.707 µM with CCRF-CEM leukemia; 3.07 µM with HCT-116 colon; 12.8 µM in the experiment on HOP-62 NSCLC; 8.25 µM in the experiment with MALME-3M melanoma; 1.79 µM with NCI-H460 lung. Besides, the GI50 with OVCAR-5 ovarian is 8.59 µM; in the experiment with SN12C renal it was 7.37 µM; in the experiment with SW-620 colon, 0.332 µM; in the experiment on T-47D breast, 14.5 µM. The TGI with 786-0 renal was 20.7 µM; with CCRF-CEM leukemia, above 50.6 µM; in the experiment on HCT-116 colon, 16.3 µM; in the experiment on HOP-62 NSCLC it was 26.2 µM; with MALME-3M melanoma, 24.4 µM; in the experiment with NCI-H460 lung, 18.4 µM. Besides, the TGI worked out at 22.3 µM in the experiment on OVCAR-5 ovarian, 21.6 µM in the experiment on SN12C renal, 19.1 µM with SW-620 colon and 32.6 µM in the experiment with T-47D breast.

`CCN1C(=O)N(CC)C2C1N=C(SC)N2/N=C/C=C/c1ccccc1OC` (centres undefined): the GI50 with 786-0 renal was 0.538 µM; in the experiment on CCRF-CEM leukemia, 0.379 µM; in the experiment on HCT-116 colon, 0.375 µM; in the experiment with HOP-62 NSCLC, 0.55 µM; in the experiment with MALME-3M melanoma, 1.01 µM; in the experiment on NCI-H460 lung it was 0.341 µM. Moreover, the GI50 in the experiment with OVCAR-5 ovarian is 0.63 µM; in the experiment with SN12C renal, 0.512 µM; with SW-620 colon it was 0.412 µM; in the experiment on T-47D breast, above 32.8 µM. The TGI in the experiment with 786-0 renal is 31.7 µM; in the experiment on CCRF-CEM leukemia it was above 48.2 µM; in the experiment with HCT-116 colon, 24.8 µM; with HOP-62 NSCLC, above 45 µM; in the experiment on MALME-3M melanoma it was above 42.8 µM; in the experiment with NCI-H460 lung, above 34.3 µM. Also, the TGI is above 54.4 µM in the experiment on OVCAR-5 ovarian, above 43.5 µM in the experiment with SN12C renal, above 100 µM in the experiment with SW-620 colon and above 58.8 µM in the experiment on T-47D breast.

With `CN(CCCCCl)P(=O)(OCc1ccc([N+](=O)[O-])o1)OCC1OC(n2cc([N+](=O)[O-])c(=O)[nH]c2=O)CC1O` (centres undefined), the GI50 is 12.7 µM with 786-0 renal; 66.8 µM in the experiment with CCRF-CEM leukemia; 66.5 µM in the experiment on HCT-116 colon; 41.2 µM with HOP-62 NSCLC; above 100 µM with MALME-3M melanoma; 3.01 µM in the experiment with NCI-H460 lung. Further, the GI50 is above 100 µM in the experiment with OVCAR-5 ovarian, 51.9 µM with SN12C renal, above 100 µM with SW-620 colon and above 100 µM in the experiment with T-47D breast. Moreover, the TGI in the experiment with 786-0 renal, in the experiment on CCRF-CEM leukemia, in the experiment on HCT-116 colon, with HOP-62 NSCLC, in the experiment on MALME-3M melanoma and in the experiment on NCI-H460 lung was above 100 µM each time. For the same compound, the TGI in the experiment with OVCAR-5 ovarian, in the experiment on SN12C renal, with SW-620 colon and with T-47D breast was above 100 µM throughout.

For `COC(=O)CC1=C(C)/C(=C/c2[nH]c(-c3ccc[nH]3)cc2OC)N=C1C`, the GI50 in the experiment with 786-0 renal was 0.191 µM; in the experiment with CCRF-CEM leukemia, 0.0768 µM; in the experiment on HCT-116 colon it was 0.0819 µM; with HOP-62 NSCLC, 0.192 µM; in the experiment on MALME-3M melanoma, 0.72 µM; in the experiment on NCI-H460 lung, 0.179 µM. Besides, the GI50 with OVCAR-5 ovarian was 0.195 µM; in the experiment with SN12C renal, 0.458 µM; in the experiment on SW-620 colon, 0.148 µM; with T-47D breast, 0.255 µM. The TGI in the experiment with 786-0 renal worked out at 0.723 µM; with CCRF-CEM leukemia, 5.34 µM; in the experiment on HCT-116 colon, 1.16 µM; in the experiment on HOP-62 NSCLC, 1.12 µM; in the experiment on MALME-3M melanoma, 2.35 µM; in the experiment with NCI-H460 lung, 2.2 µM. In addition, the TGI in the experiment on OVCAR-5 ovarian is 6.06 µM; in the experiment on SN12C renal it was 9.19 µM; in the experiment on SW-620 colon, 1.36 µM; in the experiment with T-47D breast, 1.52 µM.
